The test system of this test is P388 leukemia ip, CD2F1 mice, survival T/C. The experiment in a line: NCI In Vivo Anticancer Drug Screen. Data for tumor model P388 Leukemia (intraperitoneal) in CD2F1 (CDF1) mice. The conditions noted are these: endpoint: median survival time, higher = longer survival. Put shortly: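 Mice carrying the transplanted tumor received test compound or vehicle. Survival was recorded in each group, and the value is the treated-group measurement divided by that of the vehicle-treated control group.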

Setting [1] is: dose: 60.0 mg/kg/injection, schedule: Q01DX005 (ip), vehicle: saline with Tween-80.
The mark [2] stands for this setting: dose: 120.0 mg/kg/injection, schedule: Q01DX005 (ip), vehicle: saline with Tween-80.
[3] abbreviates: dose: 240.0 mg/kg/injection, schedule: Q01DX005 (ip), vehicle: saline with Tween-80.
The mark [4] stands for this setting: dose: 100.0 mg/kg/injection, schedule: Q01DX001 (ip), vehicle: Klucel (hydroxypropylcellulose) (HPC).
The mark [5] stands for this setting: dose: 200.0 mg/kg/injection, schedule: Q01DX001 (ip), vehicle: Klucel (hydroxypropylcellulose) (HPC).
[6] abbreviates: dose: 50.0 mg/kg/injection, schedule: Q01DX005 (ip), vehicle: saline with Tween-80.
Where [7] appears, read: dose: 100.0 mg/kg/injection, schedule: Q01DX005 (ip), vehicle: saline with Tween-80.
The mark [8] stands for this setting: dose: 200.0 mg/kg/injection, schedule: Q01DX005 (ip), vehicle: saline with Tween-80.
Setting [9] is: dose: 50.0 mg/kg/injection, schedule: Q01DX009 (ip), vehicle: saline.
The mark [10] stands for this setting: dose: 100.0 mg/kg/injection, schedule: Q01DX009 (ip), vehicle: saline.
The mark [11] stands for this setting: dose: 25.0 mg/kg/injection, schedule: Q01DX009 (ip), vehicle: saline with Tween-80.
Where [12] appears, read: dose: 50.0 mg/kg/injection, schedule: Q01DX009 (ip), vehicle: saline with Tween-80.
[13] abbreviates: dose: 100.0 mg/kg/injection, schedule: Q01DX009 (ip), vehicle: saline with Tween-80.
Where [14] appears, read: dose: 200.0 mg/kg/injection, schedule: Q01DX009 (ip), vehicle: saline.
[15] abbreviates: dose: 400.0 mg/kg/injection, schedule: Q01DX001 (ip), vehicle: Klucel (hydroxypropylcellulose) (HPC).
Where [16] appears, read: dose: 200.0 mg/kg/injection, schedule: Q01DX009 (ip), vehicle: saline with Tween-80.

We go through 25 compounds from PubChem BioAssay AID330 (DTP/NCI, 2004).

Molecules are shown by their SMILES. Values joined by “and” are separate entries in the source; they are usually repeats but may differ in a detail not shown here. Equal values may be shown once. Toxic doses and inconclusive results are not listed.

For the compound `CCOP(=O)(O)C1CCCC(C)[N-]1.CCOP(=O)(O)C1CCCC(C)[N-]1.[Mn+2]` (configuration not stated), the T/C reads like this: (dose: 100.0 mg/kg/injection, schedule: Q04DX003 (ip), vehicle: Klucel (hydroxypropylcellulose) (HPC)) 100 % of control; (dose: 200.0 mg/kg/injection, schedule: Q04DX003 (ip), vehicle: Klucel (hydroxypropylcellulose) (HPC)) 111 % of control.

Consider `O=S(=O)(Nc1ccnn1-c1ccccc1)c1ccc(N=Cc2c3ccccc3nc3cc(Cl)ccc23)cc1`, for which the T/C was 94 % of control under setting [1], 91 % of control under setting [2] and 102 % of control under setting [3].

For `CCCCOP(=O)(O)OCCCC`, the T/C is, setting by setting: under setting [4], 111 % of control; under setting [5], 105 % of control.

On to `COc1ccc(OC)c(NC(=O)Nc2nccs2)c1`, for which the T/C by setting is: (dose: 22.5 mg/kg/injection, schedule: Q01DX009 (ip), vehicle: Klucel (hydroxypropylcellulose) (HPC)) 99 % of control; (dose: 45.0 mg/kg/injection, schedule: Q01DX009 (ip), vehicle: Klucel (hydroxypropylcellulose) (HPC)) 100 % of control; (dose: 90.0 mg/kg/injection, schedule: Q01DX009 (ip), vehicle: Klucel (hydroxypropylcellulose) (HPC)) 97 % of control; (dose: 180.0 mg/kg/injection, schedule: Q01DX009 (ip), vehicle: Klucel (hydroxypropylcellulose) (HPC)) 92 % of control.

In the case of `C(=N\c1nccs1)/c1ccc[nH]1`, the T/C (dose: 50.0 mg/kg/injection, schedule: Q01DX005 (ip), vehicle: Klucel (hydroxypropylcellulose) (HPC)) was 99 % of control; the T/C (dose: 100.0 mg/kg/injection, schedule: Q01DX005 (ip), vehicle: Klucel (hydroxypropylcellulose) (HPC)) was 96 % of control; the T/C (dose: 200.0 mg/kg/injection, schedule: Q01DX005 (ip), vehicle: Klucel (hydroxypropylcellulose) (HPC)) was 100 % of control.

For the compound `COc1ccc(N2C(=O)CCSC23C(=O)N(CN2CCOCC2)c2ccccc23)cc1` (configuration not stated), the T/C under setting [6] was 103 % of control, the T/C under setting [7] is 106 % of control and the T/C under setting [8] is 95 % of control.

Turning to `CN(C)P(=O)(N(C)C)N1CCC1`, the T/C is, setting by setting: under setting [9], 104 % of control; under setting [10], 112 % of control.

Take `COC(=O)CCCCc1ccc(CCCCC(=O)OC)c2ccccc12`: the T/C runs as follows: (dose: 50.0 mg/kg/injection, schedule: Q01DX009 (ip), vehicle: other) 103 % of control; (dose: 100.0 mg/kg/injection, schedule: Q01DX009 (ip), vehicle: other) 100 % of control; (dose: 200.0 mg/kg/injection, schedule: Q01DX009 (ip), vehicle: other) 97 % of control.

Turning to `CCN(CCCl)/N=N/c1nc2c([nH]1)c(=O)n(C)c(=O)n2C`, the T/C reads like this: (dose: 50.0 mg/kg/injection, schedule: Q01DX005 (ip), vehicle: saline) 100 % of control; (dose: 100.0 mg/kg/injection, schedule: Q01DX005 (ip), vehicle: saline) 105 % of control; (dose: 200.0 mg/kg/injection, schedule: Q01DX005 (ip), vehicle: saline) 109 % of control.

With `O=C(COc1ccc(Cl)cc1Cl)Oc1c(Cl)c(Cl)c(Cl)c(Cl)c1Cl`, the T/C under setting [11] is 91 % of control, the T/C under setting [12] was 91 % of control and the T/C under setting [13] is 91 % of control.

In the case of `O=C1CN(c2cccc(C(F)(F)F)c2)C(=O)CN1/N=C/c1ccc(O)c(O)c1`, the T/C runs as follows: (dose: 6.25 mg/kg/injection, schedule: Q01DX005 (ip), vehicle: saline with Tween-80) 100 % of control; (dose: 12.5 mg/kg/injection, schedule: Q01DX005 (ip), vehicle: saline with Tween-80) 97 % of control; (dose: 25.0 mg/kg/injection, schedule: Q01DX005 (ip), vehicle: saline with Tween-80) 96 % of control.

As for `CSc1cc(C)c(O)c(CO)c1`, the T/C is, setting by setting: (dose: 100.0 mg/kg/injection, schedule: Q04DX003 (ip), vehicle: other) 104 % of control; (dose: 200.0 mg/kg/injection, schedule: Q04DX003 (ip), vehicle: other) 100 % of control; (dose: 400.0 mg/kg/injection, schedule: Q04DX003 (ip), vehicle: other) 100 % of control.

Take `NC1(C(=O)O)CCCC1C(=O)O` (configuration not stated): the T/C by setting is: under setting [9], 99 % of control; under setting [10], 99 % of control; under setting [14], 90 % of control.

Take `CC1=NN(c2ccccc2)C(=O)C1C1c2ccccc2S(=O)(=O)c2ccccc21` (configuration not stated): the T/C runs as follows: (dose: 60.0 mg/kg/injection, schedule: Q01DX005 (ip), vehicle: Klucel (hydroxypropylcellulose) (HPC)) 97 % of control; (dose: 120.0 mg/kg/injection, schedule: Q01DX005 (ip), vehicle: Klucel (hydroxypropylcellulose) (HPC)) 87 % of control.

As for `NC(=S)N/N=C\c1nc2ccccc2c2ccccc12`, the T/C runs as follows: (dose: 50.0 mg/kg/injection, schedule: Q04DX002 (ip), vehicle: Klucel (hydroxypropylcellulose) (HPC)) 99 % of control; (dose: 100.0 mg/kg/injection, schedule: Q04DX002 (ip), vehicle: Klucel (hydroxypropylcellulose) (HPC)) 95 % of control; (dose: 200.0 mg/kg/injection, schedule: Q04DX002 (ip), vehicle: Klucel (hydroxypropylcellulose) (HPC)) 94 % of control.

On to `CCOC(=O)C(Cc1c[nH]c2ccccc12)NC(=O)[C@@]1(O)[C@H](O)[C@]2(CC)C=CCN3CC[C@@]4(c5cc([C@@]6(C(=O)OC)C[C@@H]7CN(CCc8c6[nH]c6ccccc86)C[C@](O)(CC)C7)c(OC)cc5N(C)[C@@H]14)[C@@H]32` (some centres not stated), for which the T/C reads like this: (dose: 1.0 mg/kg/injection, schedule: Q01DX001 (ip), vehicle: saline) 108 % of control and 109 % of control; (dose: 2.0 mg/kg/injection, schedule: Q01DX001 (ip), vehicle: saline) 108 % of control and 112 % of control; (dose: 4.0 mg/kg/injection, schedule: Q01DX001 (ip), vehicle: saline) 109 % of control and 116 % of control; (dose: 8.0 mg/kg/injection, schedule: Q01DX001 (ip), vehicle: saline) 115 % of control and 118 % of control; (dose: 32.0 mg/kg/injection, schedule: Q01DX001 (ip), vehicle: saline) 153 % of control and 157 % of control.

Turning to `Nc1nnc2cc(F)ccc2n1`, the T/C was 104 % of control (dose: 50.0 mg/kg/injection, schedule: Q01DX009 (ip), vehicle: Klucel (hydroxypropylcellulose) (HPC)); 123 % of control under setting [9]; 108 % of control (dose: 100.0 mg/kg/injection, schedule: Q01DX009 (ip), vehicle: Klucel (hydroxypropylcellulose) (HPC)); 108 % of control under setting [10]; 98 % of control (dose: 200.0 mg/kg/injection, schedule: Q01DX009 (ip), vehicle: Klucel (hydroxypropylcellulose) (HPC)); 113 % of control under setting [14].

Take `Nc1cc(-c2ccccc2)cn1-c1nnc(-c2ccc(Br)cc2)s1`: the T/C by setting is: under setting [4], 101 % of control; under setting [5], 100 % of control; under setting [15], 99 % of control.

For the compound `CCCCCCCC/C=C\CCCCCCCC(=O)OCCN(CCOC(=O)CCCCCCC/C=C\CCCCCCCC)C(=O)c1ccccc1`, the T/C by setting is: under setting [12], 116 % of control; under setting [13], 97 % of control; under setting [16], 111 % of control.

With `N#Cc1c(Cl)nc2sccn12`, the T/C runs as follows: under setting [4], 95 % of control; under setting [5], 103 % of control.

In the case of `COC(=O)Nc1cn2c(n1)SCC2`, the T/C is 98 % of control under setting [1], 95 % of control under setting [2] and 100 % of control under setting [3].

Regarding `CC(=O)OC/C=C(\C)CC(/C=C(C)/C=C/C1=C(C)CCCC1(C)C)S(=O)(=O)c1ccccc1` (configuration not stated), the T/C was 100 % of control (dose: 12.5 mg/kg/injection, schedule: Q01DX009 (ip), vehicle: saline with Tween-80); 106 % of control under setting [11]; 90 % of control and 93 % of control under setting [12]; 92 % of control under setting [16].

Consider `COc1cc(OC)c(C2CC(C)(OC)Oc3cc4c(cc32)OCO4)c(OC)c1` (configuration not stated), for which the T/C was 103 % of control under setting [6], 97 % of control under setting [7] and 90 % of control under setting [8].

For the compound `O=C(O)CCC(C(=O)O)N(Cc1ccccc1)Cc1ccccc1` (configuration not stated), the T/C reads like this: under setting [4], 105 % of control; under setting [5], 100 % of control; under setting [15], 105 % of control.

Take `CC(C)(C)CC(C)(C)c1ccc(OCCOc2ccc(C(=O)O)cc2)cc1`: the T/C reads like this: (dose: 100.0 mg/kg/injection, schedule: Q01DX001 (ip), vehicle: saline sonified) 105 % of control; (dose: 200.0 mg/kg/injection, schedule: Q01DX001 (ip), vehicle: saline sonified) 110 % of control; (dose: 400.0 mg/kg/injection, schedule: Q01DX001 (ip), vehicle: saline sonified) 110 % of control.
